Results: patent publication US6710017B2, “Compositions and methods for controlling algae in recirculating water systems” (Avecia, Inc., priority 2000, dated 2004)
Like-named read-outs stand apart in the source and are kept apart here.

How the values were obtained:
[1] = system: mustard algae; experiment: Remedial laboratory study on algae, change in turbidity; conditions: for Change in Turbidity at active agent (ppm) five days post treatment: 5 ppm: 5 ppm active ingredient; for Change in Turbidity at active agent (ppm) five days post treatment: 5 ppm / Change in Turbidity at active agent (ppm) five days post treatment: 10 ppm: initial absorbance 0.10; for Change in Turbidity at active agent (ppm) five days post treatment: 5 ppm / Change in Turbidity at active agent (ppm) five days post treatment: 10 ppm / comments (Remedial Algae Control) / water turbidity: Table 2; for Change in Turbidity at active agent (ppm) five days post treatment: 10 ppm: 10 ppm active ingredient; for water turbidity: indicating killing of the mustard algae; for Turbidity @ 5 ppm active ingredient (Change in Turbidity at five days post treatment) / Turbidity @ 10 ppm active ingredient (Change in Turbidity at five days post treatment): Table 4
[2] = Margin of exposure versus NOEL (estimated total daily dose to a child in a swimming pool); conditions: for Margin of Exposure vs NOEL (Target > 100): herbicides, Table A, ratio of NOEL to estimated daily dose, 10 ppm in pool water, child 22 kg, 3 hours per day; for Margin of Exposure vs NOEL: agricultural fungicides, Table B
Procedure: The herbicide preferably has a margin of exposure versus no observed effect level (“NOEL”) value of greater than 10, more preferably greater than 50, especially greater than 80, and more especially greater than 99. The margin of exposure versus NOEL is determined by estimating the total daily dose of the herbicide to a child in a swimming pool and determining the ratio of the NOEL to this. The total daily exposure may be estimated as follows. Oral exposure is estimated by assuming that the swimmer is in the water 3 hours per day, and that the swimmer ingests 50 milliliters of pool water per hour of swimming. It is also assumed that the herbicide will be present in the pool water at a concentration of 10 parts per million, equivalent to 10 milligrams per liter of pool water. The daily oral exposure is therefore estimated as the product of the swimming duration, the ingestion rate, and the concentration in the pool water. Dermal exposure is estimated by assuming the swimmer is in the water 3 hours per day, that the total body surface area, 8800 square centimeters, is immersed in the water, and that the herbicide permeates the skin at a rate, expressed in centimeters per hour, predicted by a model for skin permeation based on chemical structure, the Skinperm model, developed by W. F. ten Berge. A short description of the Skinperm model, can be accessed at: http://home.wxs.nl/˜wtberge/, which is incorporated herein by reference. The daily dermal exposure is then estimated as the product of the permeation rate, the concentration of the herbicide in the pool water (expressed in milligrams per cubic centimeter), the swimming duration, and the total body surface area. The total daily exposure is estimated as the sum of the daily oral and daily dermal exposure. The daily dose, expressed in milligrams per kilogram bodyweight per day, is then estimated as the total daily exposure divided by an assumed body weight of 22 kilograms.

[3] = Procedure: The margin of exposure versus NOEL is determined by estimating the total daily dose of the herbicide to a child in a swimming pool and determining the ratio of the NOEL to this. The total daily exposure may be estimated as follows. Oral exposure is estimated by assuming that the swimmer is in the water 3 hours per day, and that the swimmer ingests 50 milliliters of pool water per hour of swimming. It is also assumed that the herbicide will be present in the pool water at a concentration of 10 parts per million, equivalent to 10 milligrams per liter of pool water. The daily oral exposure is therefore estimated as the product of the swimming duration, the ingestion rate, and the concentration in the pool water. Dermal exposure is estimated by assuming the swimmer is in the water 3 hours per day, that the total body surface area, 8800 square centimeters, is immersed in the water, and that the herbicide permeates the skin at a rate, expressed in centimeters per hour, predicted by a model for skin permeation based on chemical structure, the Skinperm model, developed by W. F. ten Berge. A short description of the Skinperm model, can be accessed at: http://home.wxs.nl/˜wtberge/, which is incorporated herein by reference. The daily dermal exposure is then estimated as the product of the permeation rate, the concentration of the herbicide in the pool water (expressed in milligrams per cubic centimeter), the swimming duration, and the total body surface area. The total daily exposure is estimated as the sum of the daily oral and daily dermal exposure. The daily dose, expressed in milligrams per kilogram bodyweight per day, is then estimated as the total daily exposure divided by an assumed body weight of 22 kilograms.
The margin of exposure versus RfD is determined by estimating the total daily dose of the herbicide to a child in a swimming pool, as described above, and determining the ratio of the RfD to this (i.e. margin of exposure/RfD).

[4] = system: mustard algae; experiment: Preventative laboratory study on algae, visual growth score; conditions: for Score @ ppm active agent: 0: 0 ppm; for Score @ ppm active agent: 0 / Score @ ppm active agent: 10 / Score @ 10 ppm / Score @ ppm active agent: 15 / Score @ 15 ppm active ingredient: visual score 0 to 4, 10 days; for Score @ ppm active agent: 0 / Score @ ppm active agent: 10 / Score @ ppm active agent: 15: 27° C.; for Score @ ppm active agent: 10 / Score @ 10 ppm: 10 ppm; for Score @ 10 ppm / Score @ 15 ppm active ingredient: Table 3; for Score @ ppm active agent: 15 / Score @ 15 ppm active ingredient: 15 ppm; for Comments (Preventive Algae Control): Table 1
[5] = herbicides, Table A, 10 ppm in pool water, child 22 kg

Compound: CCC(=O)Nc1ccc(Cl)c(Cl)c1 [Propanil, N-(3,4-dichlorophenyl)propanamide]
- Change in Turbidity at active agent (ppm) five days post treatment: 5 ppm [1]: −0.02
- Change in Turbidity at active agent (ppm) five days post treatment: 10 ppm [1]: −0.03
- comments (Remedial Algae Control) [1]: algicidal activity
- water turbidity [1]: decreased significantly
- Margin of Exposure vs NOEL (Target > 100) [2]: 67
- Margin of Exposure vs. RfD (Target > 1) [3, 5]: 0.1

Compound: COc1nc(C)nc(NC(=O)NS(=O)(=O)c2ccccc2Cl)n1 [Chlorsulfuron, 2-chloro-N-[[(4-methoxy-6-methyl-1,3,5-triazin-2-yl)amino]carbonyl]benzenesulfonamide]
- Margin of Exposure vs NOEL (Target > 100) [2]: 67
- Margin of Exposure vs. RfD (Target > 1) ([3]; human, 3 hours per day, 10 ppm): 0.7

Compound: alkyl dimethyl benzylammonium chloride [ADBAC]
- Score @ ppm active agent: 0 [4]: 3
- Score @ ppm active agent: 10 [4]: 3
- Score @ 10 ppm [4]: 3
- Score @ ppm active agent: 15 [4]: 0
- Score @ 15 ppm active ingredient [4]: 0
- Change in Turbidity at active agent (ppm) five days post treatment: 5 ppm [1]: +0.13
- Turbidity @ 5 ppm active ingredient (Change in Turbidity at five days post treatment) [1]: +0.13
- Change in Turbidity at active agent (ppm) five days post treatment: 10 ppm [1]: +0.03
- Turbidity @ 10 ppm active ingredient (Change in Turbidity at five days post treatment) [1]: +0.03
- control of the mustard algae ([1]; at 5× and 10× the EPA allowable dose): no control

Compound: COC(=O)c1ccccc1S(=O)(=O)NC(=O)Nc1nc(C)nc(OC)n1 [Metsulfuron-methyl, Methyl 2-[[[[(4-methoxy-6-methyl-1,3,5-triazin-2-yl)amino]carbonyl]amino]sulfonyl]benzoate]
- Change in Turbidity at active agent (ppm) five days post treatment: 5 ppm [1]: +0.09
- Change in Turbidity at active agent (ppm) five days post treatment: 10 ppm [1]: +0.06
- comments (Remedial Algae Control) [1]: Algistatic. More
- Margin of Exposure vs NOEL (Target > 100) [2]: 333
- Margin of Exposure vs. RfD (Target > 1) ([3]; human, 3 hours per day, 10 ppm): 3.3

Compound: CCc1cnc(C2=NC(C)(C(C)C)C(=O)N2)c(C(=O)O)c1 (stereo not shown) [Imazethapyr, 2-[4,5-dihydro-4-methyl-4-(1-methylethyl)-5-oxo-1H-imidazol-2-yl]-5ethyl-3-pyridinecarboxylic acid]
- Margin of Exposure vs NOEL (Target > 100) [2]: 3333
- Margin of Exposure vs. RfD (Target > 1) ([3]; human, 3 hours per day, 10 ppm): 3.3

Compound: COC(=O)c1ccccc1CS(=O)(=O)NC(=O)Nc1nc(OC)cc(OC)n1 [Bensulfuron ME, Methyl 2-[[[[[(4,6-dimethoxypyrimidin-2-yl)amino]carbonyl]amino]sulfonyl]methyl]-benzoate]
- Change in Turbidity at active agent (ppm) five days post treatment: 5 ppm [1]: +0.01
- Change in Turbidity at active agent (ppm) five days post treatment: 10 ppm [1]: 0.00
- comments (Remedial Algae Control) [1]: algicidal activity
- water turbidity [1]: decreased significantly
- Margin of Exposure vs NOEL (Target > 100) [2]: 265
- Margin of Exposure vs. RfD (Target > 1) ([3]; human, 3 hours per day, 10 ppm): 2.7

Compound: 6-chloro-N-methyl-N′-(1-methylethyl)-1,3,5-triazine-2,4-diamine [Norflurazon]
- Margin of Exposure vs NOEL (Target > 100) [2]: 20
- Margin of Exposure vs. RfD (Target > 1) [3, 5]: 0.3

Compound: CCc1cccc(C)c1N(C(=O)CCl)C(C)COC (stereo not shown) [metolachlor]
- Score @ ppm active agent: 0 [4]: 1
- Score @ ppm active agent: 10 [4]: 1
- Score @ ppm active agent: 15 [4]: 1
- Comments (Preventive Algae Control) [4]: very little growth
- Change in Turbidity at active agent (ppm) five days post treatment: 5 ppm [1]: +0.12
- Change in Turbidity at active agent (ppm) five days post treatment: 10 ppm [1]: +0.06
- comments (Remedial Algae Control) [1]: Algistatic. More

Compound: COc1ccc(C(=CC(=O)N2CCOCC2)c2ccc(Cl)cc2)cc1OC [Dimethomorph, (E,Z)-4-[3-(4-chlorophenyl)-3-(3,4-dimethoxyphenyl)acryloyl]morpholine]
- Margin of Exposure vs NOEL [2]: 88
- Margin of Exposure vs. RfD ([3]; human, 3 hours per day, 10 ppm): 0.8

Compound: CN(C)c1nc(=O)n(C2CCCCC2)c(=O)n1C [Hexazinone, 3-cyclohexyl-6-(dimethylamino)-1-methyl-1,3,5-triazine-2,4(1H,3H)-dione]
- Change in Turbidity at active agent (ppm) five days post treatment: 5 ppm [1]: −0.03
- Change in Turbidity at active agent (ppm) five days post treatment: 10 ppm [1]: −0.03
- comments (Remedial Algae Control) [1]: algicidal activity
- water turbidity [1]: decreased significantly
- Margin of Exposure vs NOEL (Target > 100) [2]: 63
- Margin of Exposure vs. RfD (Target > 1) ([3]; human, 3 hours per day, 10 ppm): 0.6

Compound: CCc1cccc(CC)c1N(COC)C(=O)CCl [Alachlor, 2-chloro-2′,6′-diethyl-N-(methoxymethyl) acetanilide]
- Margin of Exposure vs NOEL (Target > 100) [2]: 13
- Margin of Exposure vs. RfD (Target > 1) [3, 5]: 0.1

Compound: C=CC1(C)OC(=O)N(c2cc(Cl)cc(Cl)c2)C1=O (stereo not shown) [Vinclozolin, 3-(3,5-dichlorophenyl)-5-methyl-5-vinyl-1,3-oxazolidine-2,4-dione]
- Margin of Exposure vs NOEL [2]: 33
- Margin of Exposure vs. RfD ([3]; human, 3 hours per day, 10 ppm): 0.3

Compound: CCSC(=O)N1CCCCCC1 [Molinate, S-ethyl hexahydro-1H-azepine-1-carbothioate]
- Margin of Exposure vs NOEL (Target > 100) [2]: 3
- Margin of Exposure vs. RfD (Target > 1) [3, 5]: 0.03

Compound: CCCC(=NOCC)C1=C(O)CC(CC(C)SCC)CC1=O (stereo not shown) [Sethoxydim, 2-[1-(ethoxyimino)butyl]-5-[2-(ethylthio)propyl]-3-hydroxy-2-cyclohexen-1-one]
- Margin of Exposure vs NOEL (Target > 100) [2]: 119
- Margin of Exposure vs. RfD (Target > 1) [3, 5]: 12

Compound: Cc1cc(C2CC2)nc(Nc2ccccc2)n1 [Cyprodinil, 4-cyclopropyl-6-methyl-N-phenyl-2-pyrimidinamine]
- Margin of Exposure vs NOEL [2]: 50
- Margin of Exposure vs. RfD ([3]; human, 3 hours per day, 10 ppm): 0.5

Compound: CCNc1nc(NC(C)C)nc(SC)n1 [Ametryn, 2-ethylamino-4-isopropylamino-6-methylthio-s-triazine]
- Margin of Exposure vs NOEL (Target > 100) [2]: 25
- Margin of Exposure vs. RfD (Target > 1) ([3]; human, 3 hours per day, 10 ppm): 0.02

Compound: CC(C)NC(=O)N1CC(=O)N(c2cc(Cl)cc(Cl)c2)C1=O [Iprodione, 3-(3,5-dichlorophenyl)-N-(1-methylethyl)-2,4-dioxo-1-imidazolidinecarboxamide]
- Margin of Exposure vs NOEL [2]: 81
- Margin of Exposure vs. RfD ([3]; human, 3 hours per day, 10 ppm): 0.3

Compound: CC(C)OC(=O)Nc1cccc(Cl)c1 [Chlopropham, Isopropyl 3-chlorocarbanilate; isopropyl 3-chlorophenylcarbamate]
- Margin of Exposure vs NOEL (Target > 100) [2]: 67
- Margin of Exposure vs. RfD (Target > 1) ([3]; human, 3 hours per day, 10 ppm): 0.7

Compound: CSc1nc(NC(C)C)nc(NC(C)C)n1 [Prometryn, N,N′-bis(1-methylethyl)-6-(methylthio)-1,3,5-triazine-2,4-diamine]
- Margin of Exposure vs NOEL (Target > 100) [2]: 50
- Margin of Exposure vs. RfD (Target > 1) ([3]; human, 3 hours per day, 10 ppm): 0.1

Compound: Cc1[nH]c(=O)n(C(C)(C)C)c(=O)c1Cl [Terbacil, 3-tert-Butyl-5-chloro-6-methyluracil]
- Score @ ppm active agent: 0 [4]: 0
- Score @ ppm active agent: 10 [4]: 0
- Score @ ppm active agent: 15 [4]: 0
- Change in Turbidity at active agent (ppm) five days post treatment: 5 ppm [1]: −0.02
- Change in Turbidity at active agent (ppm) five days post treatment: 10 ppm [1]: −0.02
- comments (Remedial Algae Control) [1]: algicidal activity
- water turbidity [1]: decreased significantly
- Margin of Exposure vs NOEL (Target > 100) [2]: 16
- Margin of Exposure vs. RfD (Target > 1) [3, 5]: 0.17

Compound: Poly(oxyethylene(dimethylimino)-ethylene(dimethylimino)-ethylene dichloride) [Polyquat]
- Score @ ppm active agent: 0 [4]: 2
- Score @ ppm active agent: 10 [4]: 2
- Score @ 10 ppm [4]: 2
- Score @ ppm active agent: 15 [4]: 2
- Score @ 15 ppm active ingredient [4]: 2
- Comments (Preventive Algae Control) [4]: Bloom noticeable
- Change in Turbidity at active agent (ppm) five days post treatment: 5 ppm [1]: +0.29
- Turbidity @ 5 ppm active ingredient (Change in Turbidity at five days post treatment) [1]: +0.29
- Change in Turbidity at active agent (ppm) five days post treatment: 10 ppm [1]: +0.28
- Turbidity @ 10 ppm active ingredient (Change in Turbidity at five days post treatment) [1]: +0.28
